# Data from publication PMC12154456, “Dual Mechanisms of the Diazepine-Benzimidazole Derivative, DAB-19, in Modulating Glutamatergic Neurotransmission” (International Journal of Molecular Sciences, 2025).
# System: T1, voltage-gated sodium channels (native Nav channels, isoform not identified)
# T1 construct: native channels in isolated hippocampal CA1 pyramidal neurons
# Test: whole-cell patch clamp of TTX-sensitive sodium current, steps from -110 to -10 mV
# Format: cell-based, Rattus norvegicus
structure (smiles),measurement,value
CC(C)(C)c1ccc(CN2C3=NCCCCN3c3ccccc32)cc1 [DAB-19],IC50,8.3 ± 1.4 µM
